Test results reported in publication PMC11129975, “A first-in-human phase I study of TAS-117, an allosteric AKT inhibitor, in patients with advanced solid tumors” (Cancer Chemotherapy and Pharmacology, 2024).
Read-outs that look alike come from different tables or passages of the source.

Legend:
[1] = set-up: method as in data on file, Taiho Pharmaceutical Co., Ltd.; conditions: repeated dosing; ref data on file, Taiho Pharmaceutical Co., Ltd.; cited from earlier work
[2] = tested on: multiple tumor cell lines derived from human cancers; set-up: method as in data on file, Taiho Pharmaceutical Co., Ltd.; conditions: breast, ovarian, gastric, endometrial and myeloma lines; ref data on file, Taiho Pharmaceutical Co., Ltd.; cited from earlier work
[3] = set-up: method as in data on file, Taiho Pharmaceutical Co., Ltd.; conditions: ref data on file, Taiho Pharmaceutical Co., Ltd., cited from earlier work
[4] = tested on: advanced or metastatic solid tumors; assay: Antitumor activity, best overall response by RECIST version 1.1; type: in vivo, human
Procedure: The phosphorylation status of PRAS40 in the blood was measured with an electrochemiluminescence detection assay using a Meso Scale Discovery instrument (Meso Scale Diagnostics, Rockville, MD, US). For efficacy, solid tumors were assessed using Response Evaluation Criteria in Solid Tumors (RECIST; version 1.1).

NCI-N87 = conditions: oral dosing; NCI-N87 (HER2 amplification); cited from earlier work
[5] = RMP (intermittent dosing) Level 4 (24 mg) n = 6
[6] = RMP (intermittent dosing) Level 5 (32 mg) n = 4
[7] = SAP (intermittent dosing) Cohort 1 Level 4 n = 16
[8] = SAP (intermittent dosing) Cohort 2 Level 4 n = 7
[9] = SAP (intermittent dosing) Cohort 3 Level 4 n = 20

Which Toxicity findings [1] does the source give for `C[C@]1(O)C[C@@](N)(c2ccc(-c3nc4n(c3-c3ccccc3)COc3ccncc3-4)cc2)C1` [TAS-117] here?
The Toxicity findings was “dysregulation of carbohydrate metabolism and atrophic changes in the lymphatic/hematopoietic organs and adipocytes”.

What about the Anti-proliferative activity [2] of the same molecule?
The Anti-proliferative activity was “strong anti-proliferative activity”.

And the “Highest non-severely toxic dose” value ([3]; 4-week repeated oral dose)?
The value was 1.2 mg/kg/day.

What about the Toxicity findings ([3]; repeated dosing) of the same molecule?
Its Toxicity findings is “dysregulation of carbohydrate metabolism and atrophic changes in the lymphatic/hematopoietic organs and adipocytes”.

What about the “Best overall response: CR” value ([4]; DEP (QD) Level 1 (4 mg) n = 2) of the same molecule?
Its value is 0 n (%).

What about the “Best overall response: NE” value ([4]; DEP (QD) Level 1 (4 mg) n = 2) of the same molecule?
The value was 0 n (%).

What about the “Best overall response: Non-CR/non-PD” value ([4]; DEP (QD) Level 1 (4 mg) n = 2) of the same molecule?
Its value is 0 n (%).

And the “Best overall response: PD” value ([4]; DEP (QD) Level 1 (4 mg) n = 2)?
Its value is 2 (100.0) n (%).

What about the “Best overall response: PR” value ([4]; DEP (QD) Level 1 (4 mg) n = 2) of the same molecule?
The value was 0 n (%).

And the “Best overall response: SD” value ([4]; DEP (QD) Level 1 (4 mg) n = 2)?
Its value is 0 n (%).

And the “DCR (CR + PR + SD + non-CR/non-PD)” value ([4]; DEP (QD) Level 1 (4 mg) n = 2)?
The value was 0 n (%).

And the “RR (CR + PR)” value ([4]; DEP (QD) Level 1 (4 mg) n = 2)?
Its value is 0 n (%).

And the “Best overall response: CR” value ([4]; DEP (QD) Level 2 (8 mg) n = 1)?
The value was 0 n (%).

What about the “Best overall response: NE” value ([4]; DEP (QD) Level 2 (8 mg) n = 1) of the same molecule?
The value was 0 n (%).

What about the “Best overall response: Non-CR/non-PD” value ([4]; DEP (QD) Level 2 (8 mg) n = 1) of the same molecule?
The value was 0 n (%).

And the “Best overall response: PD” value ([4]; DEP (QD) Level 2 (8 mg) n = 1)?
Its value is 0 n (%).

And the “Best overall response: PR” value ([4]; DEP (QD) Level 2 (8 mg) n = 1)?
Its value is 0 n (%).

What about the “Best overall response: SD” value ([4]; DEP (QD) Level 2 (8 mg) n = 1) of the same molecule?
Its value is 1 (100.0) n (%).

And the “DCR (CR + PR + SD + non-CR/non-PD)” value ([4]; DEP (QD) Level 2 (8 mg) n = 1)?
Its value is 1 (100.0) n (%).

And the “RR (CR + PR)” value ([4]; DEP (QD) Level 2 (8 mg) n = 1)?
Its value is 0 n (%).

What about the “Best overall response: CR” value ([4]; DEP (QD) Level 3 (16 mg) n = 6) of the same molecule?
Its value is 0 n (%).

What about the “Best overall response: NE” value ([4]; DEP (QD) Level 3 (16 mg) n = 6) of the same molecule?
Its value is 0 n (%).

What about the “Best overall response: Non-CR/non-PD” value ([4]; DEP (QD) Level 3 (16 mg) n = 6) of the same molecule?
Its value is 0 n (%).

And the “Best overall response: PD” value ([4]; DEP (QD) Level 3 (16 mg) n = 6)?
Its value is 6 (100.0) n (%).

And the “Best overall response: PR” value ([4]; DEP (QD) Level 3 (16 mg) n = 6)?
The value was 0 n (%).

And the “Best overall response: SD” value ([4]; DEP (QD) Level 3 (16 mg) n = 6)?
Its value is 0 n (%).

What about the “DCR (CR + PR + SD + non-CR/non-PD)” value ([4]; DEP (QD) Level 3 (16 mg) n = 6) of the same molecule?
The value was 0 n (%).

And the “RR (CR + PR)” value ([4]; DEP (QD) Level 3 (16 mg) n = 6)?
Its value is 0 n (%).

What about the “Best overall response: CR” value ([4]; DEP (QD) Level 4 (24 mg) n = 3) of the same molecule?
The value was 0 n (%).

And the “Best overall response: NE” value ([4]; DEP (QD) Level 4 (24 mg) n = 3)?
The value was 0 n (%).

And the “Best overall response: Non-CR/non-PD” value ([4]; DEP (QD) Level 4 (24 mg) n = 3)?
The value was 0 n (%).

And the “Best overall response: PD” value ([4]; DEP (QD) Level 4 (24 mg) n = 3)?
The value was 2 (66.7) n (%).

What about the “Best overall response: PR” value ([4]; DEP (QD) Level 4 (24 mg) n = 3) of the same molecule?
The value was 0 n (%).

And the “Best overall response: SD” value ([4]; DEP (QD) Level 4 (24 mg) n = 3)?
The value was 1 (33.3) n (%).

And the “DCR (CR + PR + SD + non-CR/non-PD)” value ([4]; DEP (QD) Level 4 (24 mg) n = 3)?
Its value is 1 (33.3) n (%).

What about the “RR (CR + PR)” value ([4]; DEP (QD) Level 4 (24 mg) n = 3) of the same molecule?
Its value is 0 n (%).

What about the “Best overall response: CR” value [4, 5] of the same molecule?
Its value is 0 n (%).

And the “Best overall response: NE” value [4, 5]?
Its value is 0 n (%).

And the “Best overall response: Non-CR/non-PD” value [4, 5]?
The value was 0 n (%).

What about the “Best overall response: PD” value [4, 5] of the same molecule?
The value was 4 (66.7) n (%).

What about the “Best overall response: PR” value [4, 5] of the same molecule?
The value was 0 n (%).

And the “Best overall response: SD” value [4, 5]?
Its value is 2 (33.3) n (%).

What about the “DCR (CR + PR + SD + non-CR/non-PD)” value [4, 5] of the same molecule?
The value was 2 (33.3) n (%).

And the “RR (CR + PR)” value [4, 5]?
Its value is 0 n (%).

What about the “Best overall response: CR” value [4, 6] of the same molecule?
Its value is 0 n (%).

What about the “Best overall response: NE” value [4, 6] of the same molecule?
The value was 0 n (%).

What about the “Best overall response: Non-CR/non-PD” value [4, 6] of the same molecule?
Its value is 0 n (%).

What about the “Best overall response: PD” value [4, 6] of the same molecule?
Its value is 4 (100.0) n (%).

What about the “Best overall response: PR” value [4, 6] of the same molecule?
The value was 0 n (%).

What about the “Best overall response: SD” value [4, 6] of the same molecule?
Its value is 0 n (%).

And the “DCR (CR + PR + SD + non-CR/non-PD)” value [4, 6]?
Its value is 0 n (%).

And the “RR (CR + PR)” value [4, 6]?
The value was 0 n (%).

What about the “Patients with confirmed partial response” value ([4]; SAP) of the same molecule?
The value was “Four patients”.

What about the “Best overall response: CR” value [4, 7] of the same molecule?
The value was 0 n (%).

What about the “Best overall response: NE” value [4, 7] of the same molecule?
Its value is 0 n (%).

And the “Best overall response: Non-CR/non-PD” value [4, 7]?
The value was 0 n (%).

What about the “Best overall response: PD” value [4, 7] of the same molecule?
Its value is 5 (31.3) n (%).

And the “Best overall response: PR” value [4, 7]?
The value was 1 (6.3) n (%).

What about the “Best overall response: SD” value [4, 7] of the same molecule?
Its value is 10 (62.5) n (%).

What about the “DCR (CR + PR + SD + non-CR/non-PD)” value [4, 7] of the same molecule?
Its value is 11 (68.8) n (%).

And the “RR (CR + PR)” value [4, 7]?
The value was 1 (6.3) n (%).

What about the “Best overall response: CR” value [4, 8] of the same molecule?
Its value is 0 n (%).

And the “Best overall response: NE” value [4, 8]?
The value was 0 n (%).

What about the “Best overall response: Non-CR/non-PD” value [4, 8] of the same molecule?
Its value is 0 n (%).

What about the “Best overall response: PD” value [4, 8] of the same molecule?
The value was 1 (14.3) n (%).

And the “Best overall response: PR” value [4, 8]?
The value was 0 n (%).

And the “Best overall response: SD” value [4, 8]?
Its value is 6 (85.7) n (%).

And the “DCR (CR + PR + SD + non-CR/non-PD)” value [4, 8]?
The value was 6 (85.7) n (%).

What about the “RR (CR + PR)” value [4, 8] of the same molecule?
The value was 0 n (%).

And the “Best overall response: CR” value [4, 9]?
The value was 0 n (%).

And the “Best overall response: NE” value [4, 9]?
The value was 0 n (%).

What about the “Best overall response: Non-CR/non-PD” value [4, 9] of the same molecule?
The value was 0 n (%).

And the “Best overall response: PD” value [4, 9]?
The value was 12 (60.0) n (%).

What about the “Best overall response: PR” value [4, 9] of the same molecule?
The value was 3 (15.0) n (%).

And the “Best overall response: SD” value [4, 9]?
The value was 5 (25.0) n (%).

What about the “DCR (CR + PR + SD + non-CR/non-PD)” value [4, 9] of the same molecule?
The value was 8 (40.0) n (%).

What about the “RR (CR + PR)” value [4, 9] of the same molecule?
Its value is 3 (15.0) n (%).

And the “Confirmed PR” value ([4]; SAP cohort 1 (endometrial cancer with PIK3CA mutation), 1 of 16 patients)?
Its value is 6.3%.

What about the DCR ([4]; SAP cohort 2) of the same molecule?
The DCR was 85.7%.

And the DCR ([4]; SAP cohort 3)?
The DCR was 40.0%.

And the “Confirmed PR” value ([4]; SAP cohort 3 (ovarian clear cell carcinoma), 3 of 20 patients)?
Its value is 15.0%.

What about the DCR ([4]; SAP, cohort 1) of the same molecule?
The DCR was 68.8%.

What about the “Best overall response: CR” value ([4]; Total N = 65) of the same molecule?
Its value is 0 n (%).

What about the “Best overall response: NE” value ([4]; Total N = 65) of the same molecule?
Its value is 0 n (%).

And the “Best overall response: Non-CR/non-PD” value ([4]; Total N = 65)?
Its value is 0 n (%).

What about the “Best overall response: PD” value ([4]; Total N = 65) of the same molecule?
The value was 36 (55.4) n (%).

What about the “Best overall response: PR” value ([4]; Total N = 65) of the same molecule?
Its value is 4 (6.2) n (%).

What about the “Best overall response: SD” value ([4]; Total N = 65) of the same molecule?
Its value is 25 (38.5) n (%).

What about the “DCR (CR + PR + SD + non-CR/non-PD)” value ([4]; Total N = 65) of the same molecule?
The value was 29 (44.6) n (%).

What about the “RR (CR + PR)” value ([4]; Total N = 65) of the same molecule?
The value was 4 (6.2) n (%).

And the DCR ([4]; dose level 2 in the DEP)?
The DCR was 100%.

What about the Antitumor activity (NCI-N87) of the same molecule?
Its Antitumor activity is “demonstrated single-agent antitumor activity”.
